EPA's ToxValDB 9.5

Test system: Rattus norvegicus
[1] = chronic, duration: 2 years, oral, F, Sprague-Dawley, Body Weight: […] lower terminal body weight
[2] = chronic, duration: 2 years, oral, M/F, Sprague-Dawley, Hepatic: Increased serum ALT and AST at ?[…] / hepatocellular hypertrophy at 15 mg/kg/day / hepatocellular necrosis at 15 mg/kg/day only …
[3] = chronic, duration: 2 years, oral, M, Sprague-Dawley, Reproductive: Vascular mineralization in the testes
[4] = developmental, duration: 15 hours, inhalation, F, Sprague-Dawley, Developmental: 10% decreased neonatal body weight on PND 1
[5] = reproduction developmental, duration: 90 days, oral, M/F, Sprague-Dawley, Body Weight: >11% reduced body weight
[6] = reproduction developmental, duration: 90 days, oral, M/F, Sprague-Dawley, Hepatic: Increased absolute and relative liver weight in P-generation (36%) and F1-generation (30%) males / hepatocellular hypertrophy and …
[7] = short-term, duration: 2 weeks, inhalation, M, CD, Body Weight: 7% lower body weight on exposure day 5
[8] = short-term, duration: 14 days, oral, M, Body Weight: 24% decrease in overall body weight gain
[9] = short-term, duration: 14 days, oral, M, CD, Body Weight: 14% lower final body weight
[10] = short-term, duration: 14 days, oral, M, CD, Body Weight: 14% reduction in final body weight
[11] = short-term, duration: 14 days, oral, M, CD, Reproductive: 2-fold increase in serum estradiol
[12] = short-term, duration: 14 days, oral, M, CD, Reproductive: 63% increase in serum estradiol
[13] = short-term, duration: 28 days, oral, M, CD, Body Weight: 10% decrease in final body weight
[14] = short-term, duration: 28 days, oral, M, CD, Hepatic: 34% decrease in serum triglyceride levels, minimal hepatocellular hypertrophy at ?[…] / minimal focal necrosis at 29 mg/kg/day
[15] = subchronic, duration: 90 days, oral, M, CD, Body Weight: 33% reduction in final mean body weight

`O=C([O-])C(F)(F)C(F)(F)C(F)(F)C(F)(F)C(F)(F)C(F)(F)C(F)(F)F.[NH4+]` [Ammonium perfluorooctanoate] gave an LOAEL (chronic, duration: 1 years, oral, M, CD, Body Weight: >10% reduced weight gain + Reproductive: Significant increase in serum estradiol at 1, 3, 6, 9, and 12 months (~100-180%) / …) of 13.6 mg/kg-day, an NOAEL (chronic, duration: 1 years, oral, M, CD, Hepatic: Increased relative liver weight) of 13.6 mg/kg-day and an NOAEL (chronic, duration: 2 years, oral, F, Sprague-Dawley) of 15 mg/kg-day. The LOAEL [1] was 15 mg/kg-day, the NOAEL [1] was 1.5 mg/kg-day and the NOAEL (chronic, duration: 2 years, oral, M/F, Sprague-Dawley) was 15 mg/kg-day. For the same compound, the LOAEL [2] was 15 mg/kg-day, the NOAEL [2] was 1.5 mg/kg-day and the LOAEL (chronic, duration: 2 years, oral, M/F, Sprague-Dawley, Other Cancer: CEL: testicular Leydig cell adenomas) was 15 mg/kg-day. For the same compound, the LOAEL (chronic, duration: 2 years, oral, M, CD, Body Weight: >10% reduction in weight gain most of the study + Other: Increased incidence of acinar cell + Reproductive: Increased incidence…) was 13.6 mg/kg-day, the LOAEL (chronic, duration: 2 years, oral, M, CD, Cancer: CEL: testicular Leydig cell adenomas and pancreatic acinar cell adenomas) was 13.6 mg/kg-day and the NOAEL (chronic, duration: 2 years, oral, M, CD, Hepatic: Increased relative liver weight) was 13.6 mg/kg-day. The LOAEL (chronic, duration: 2 years, oral, M, Sprague-Dawley, Other Noncancer: Inflammation of the salivary gland) was 1.5 mg/kg-day, the LOAEL [3] was 15 mg/kg-day and the NOAEL [3] was 1.5 mg/kg-day. The LOAEL [4] was 25 mg/m3, the NOAEL [4] was 10 mg/m3 and the NOAEL (developmental, duration: 10 days, oral, F, Sprague-Dawley, Developmental: No alterations in fetal body weight or teratology) was 100 mg/kg-day. The LOAEL (developmental, duration: 90 days, oral, M/F, Sprague-Dawley, Developmental: Increased number of dead pups on PNDs 6-8) was 30 mg/kg-day, the NOAEL (developmental, duration: 90 days, oral, M/F, Sprague-Dawley, Developmental: Increased number of dead pups on PNDs 6-8 + Endocrine: Vacuolation of zona glomerulosa of adrenal gland) was 10 mg/kg-day and the LOAEL (reproduction developmental, duration: 10 days, oral, F, Sprague-Dawley, Body Weight: 33% reduced maternal body weight gain) was 100 mg/kg-day. It also gave an LOAEL [5] of 10 mg/kg-day, an NOAEL [5] of 3 mg/kg-day and an LOAEL (reproduction developmental, duration: 90 days, oral, M/F, Sprague-Dawley, Endocrine: Vacuolation of zona glomerulosa of adrenal gland) of 30 mg/kg-day. The LOAEL [6] was 3 mg/kg-day, the NOAEL [6] was 1 mg/kg-day and the NOAEL (reproduction developmental, duration: 90 days, oral, M/F, Sprague-Dawley, Reproductive: No alteration in reproductive performance in P0 or F1 generation) was 30 mg/kg-day. The NOAEL (short-term, duration: 2 weeks, dermal, M, CD) was 2000 mg/kg-day, the LOAEL (short-term, duration: 2 weeks, dermal, M, CD, Body Weight: 14% weight loss) was 200 mg/kg-day and the NOAEL (short-term, duration: 2 weeks, dermal, M, CD, Body Weight: 14% weight loss + Dermal: Skin irritation / acute necrotizing dermatitis) was 20 mg/kg-day. The LOAEL (short-term, duration: 2 weeks, dermal, M, CD, Hepatic: Foci of coagulative necrosis) was 20 mg/kg-day, the LOAEL [7] was 84 mg/m3 and the NOAEL [7] was 7.6 mg/m3. It also gave an NOAEL (short-term, duration: 2 weeks, inhalation, M, CD, Hepatic: Increased absolute and relative liver weight / hepatocellular hypertrophy at 7.6 mg/m3 + Neurological: No histological alterations…) of 84 mg/m3, an LOAEL (short-term, duration: 7 days, oral, M, Sprague-Dawley, Body Weight: 17% weight loss) of 50 mg/kg-day and an NOAEL (short-term, duration: 7 days, oral, M, Sprague-Dawley, Hepatic: 2-fold increase in relative and absolute liver weight) of 50 mg/kg-day. The NOAEL (short-term, duration: 7 days, oral, M, Sprague-Dawley, Hepatic: Increased liver weight, decreased serum cholesterol, triglyceride, hepatocellular hypertrophy at ?18 mg/kg/day) was 23 mg/kg-day, the NOAEL (short-term, duration: 7 days, oral, M, Wistar, Hepatic: 66% increase in absolute liver weight) was 16 mg/kg-day and the LOAEL [8] was 3 mg/kg-day. For the same compound, the NOAEL [8] was 1 mg/kg-day, the LOAEL [9] was 20 mg/kg-day and the NOAEL [9] was 2 mg/kg-day. It also gave an LOAEL [10] of 25 mg/kg-day, an NOAEL [10] of 10 mg/kg-day and an NOAEL (short-term, duration: 14 days, oral, M, CD, Hepatic: 34% increase in absolute and relative liver we) of 40 mg/kg-day. It also gave an NOAEL (short-term, duration: 14 days, oral, M, CD, Hepatic: 46% increase in relative liver weight at ?10 mg/kg/day) of 50 mg/kg-day, an LOAEL [11] of 2 mg/kg-day and an NOAEL [11] of 0.2 mg/kg-day. The LOAEL [12] was 10 mg/kg-day, the NOAEL [12] was 1 mg/kg-day and the LOAEL (short-term, duration: 14 days, oral, M, CD, Reproductive: 184% increase in serum estradiol) was 25 mg/kg-day. The NOAEL (short-term, duration: 14 days, oral, M, Hepatic: Decreased serum cholesterol levels at ?0.3 mg/kg/day) was 30 mg/kg-day, the NOAEL (short-term, duration: 14 days, oral, M, Sprague-Dawley, Hepatic: 2-fold increased mean relative liver weight at 50 mg/kg/day + Immunotoxicological: No alterations in spleen weight or splenocyte …) was 50 mg/kg-day and the LOAEL (short-term, duration: 28 days, oral, F, albino, Death: before end of 1st week of study) was 1130 mg/kg-day. For the same compound, the NOAEL (short-term, duration: 28 days, oral, M, CD) was 29 mg/kg-day, the NOAEL (short-term, duration: 28 days, oral, M, CD, Body Weight: 30 mg/kg/day: 11% reduction in final body weight / 100 mg/kg/day: 33% reduction in final body weight) was 10 mg/kg-day and the LOAEL [13] was 9.6 mg/kg-day. It also gave an NOAEL [13] of 0.96 mg/kg-day, an LOAEL [14] of 29 mg/kg-day and an NOAEL [14] of 0.29 mg/kg-day. The NOAEL (short-term, duration: 28 days, oral, M, CD, Hepatic: Hepatocyte hypertrophy) was 3 mg/kg-day, the LOAEL (short-term, duration: 28 days, oral, M, Sprague-Dawley, Hepatic: Increased liver weight (43% on day 29), decreased serum cholesterol (39% on day 29) and triglyceride (73% on day 29), …) was 18 mg/kg-day and the LOAEL (short-term, duration: 28 days, oral, M, albino, Death: 5/5 males and 5/5 females died) was 1000 mg/kg-day. It also gave an NOAEL (subchronic, duration: 13 weeks, oral, M, CD, Hepatic: Minimal to moderate hepatocellular hypertrophy at ?0.64 mg/kg/day + Neurological: No histological alterations + Reproductive: No …) of 6.5 mg/kg-day, an NOAEL (subchronic, duration: 90 days, oral, F, CD) of 100 mg/kg-day and an NOAEL (subchronic, duration: 90 days, oral, F, CD, Neurological: No histological alterations) of 110 mg/kg-day. The LOAEL [15] was 100 mg/kg-day, the NOAEL [15] was 30 mg/kg-day and the NOAEL (subchronic, duration: 90 days, oral, M, CD, Hepatic: Hepatocyte hypertrophy / 50% increase in absolute liver weight + Reproductive: No histological alterations) was 100 mg/kg-day.
